Reference: patent publication US10793559B2, “Chemical compounds” (GlaxoSmithKline Intellectual Property Development Limited, priority 2016, dated 2020)

How the values were obtained:
[1] = tested on: amphetamine-induced psychosis; settings: Law et al. 2012; cited from earlier work
[2] = biological target: PI3K-Delta (Homo sapiens, UniProt O00329); experiment: PI3K HTRF assay (PI3K Delta); format: biochemical; settings: PI3K-Delta 1.5 nM, 80 μM ATP, 10 μM PIP2 final, read-out: mean pIC50 in the PI3K Delta assay (converted)
Chain of PI3K-Delta (O00329 whole entry): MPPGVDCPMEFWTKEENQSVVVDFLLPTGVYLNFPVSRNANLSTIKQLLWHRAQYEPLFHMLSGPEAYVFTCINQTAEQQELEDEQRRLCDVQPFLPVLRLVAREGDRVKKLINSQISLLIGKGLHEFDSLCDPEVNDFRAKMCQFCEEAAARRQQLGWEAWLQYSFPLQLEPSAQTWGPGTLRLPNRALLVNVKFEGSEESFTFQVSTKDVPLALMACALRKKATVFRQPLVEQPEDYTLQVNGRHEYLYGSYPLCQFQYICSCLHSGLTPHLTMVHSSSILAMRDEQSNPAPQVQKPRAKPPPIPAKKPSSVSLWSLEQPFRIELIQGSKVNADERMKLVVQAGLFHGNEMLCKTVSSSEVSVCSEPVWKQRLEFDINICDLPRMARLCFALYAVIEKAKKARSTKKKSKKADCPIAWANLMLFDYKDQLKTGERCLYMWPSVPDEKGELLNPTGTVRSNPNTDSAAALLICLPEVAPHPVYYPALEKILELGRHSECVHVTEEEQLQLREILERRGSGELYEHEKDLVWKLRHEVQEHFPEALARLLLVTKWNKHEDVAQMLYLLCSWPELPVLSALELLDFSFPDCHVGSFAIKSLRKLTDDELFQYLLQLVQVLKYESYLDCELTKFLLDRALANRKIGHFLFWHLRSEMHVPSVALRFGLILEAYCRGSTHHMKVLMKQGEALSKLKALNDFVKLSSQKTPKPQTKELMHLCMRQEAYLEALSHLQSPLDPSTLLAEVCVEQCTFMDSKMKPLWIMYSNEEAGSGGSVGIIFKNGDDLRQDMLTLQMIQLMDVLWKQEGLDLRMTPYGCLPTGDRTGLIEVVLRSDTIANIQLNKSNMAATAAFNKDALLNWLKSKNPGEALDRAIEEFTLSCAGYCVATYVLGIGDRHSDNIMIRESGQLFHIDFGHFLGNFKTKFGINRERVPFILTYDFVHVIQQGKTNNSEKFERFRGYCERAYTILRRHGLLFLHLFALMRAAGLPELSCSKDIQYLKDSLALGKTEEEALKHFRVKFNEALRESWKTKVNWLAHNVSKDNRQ
Chain of PI3K-Delta (P27986 whole entry partner): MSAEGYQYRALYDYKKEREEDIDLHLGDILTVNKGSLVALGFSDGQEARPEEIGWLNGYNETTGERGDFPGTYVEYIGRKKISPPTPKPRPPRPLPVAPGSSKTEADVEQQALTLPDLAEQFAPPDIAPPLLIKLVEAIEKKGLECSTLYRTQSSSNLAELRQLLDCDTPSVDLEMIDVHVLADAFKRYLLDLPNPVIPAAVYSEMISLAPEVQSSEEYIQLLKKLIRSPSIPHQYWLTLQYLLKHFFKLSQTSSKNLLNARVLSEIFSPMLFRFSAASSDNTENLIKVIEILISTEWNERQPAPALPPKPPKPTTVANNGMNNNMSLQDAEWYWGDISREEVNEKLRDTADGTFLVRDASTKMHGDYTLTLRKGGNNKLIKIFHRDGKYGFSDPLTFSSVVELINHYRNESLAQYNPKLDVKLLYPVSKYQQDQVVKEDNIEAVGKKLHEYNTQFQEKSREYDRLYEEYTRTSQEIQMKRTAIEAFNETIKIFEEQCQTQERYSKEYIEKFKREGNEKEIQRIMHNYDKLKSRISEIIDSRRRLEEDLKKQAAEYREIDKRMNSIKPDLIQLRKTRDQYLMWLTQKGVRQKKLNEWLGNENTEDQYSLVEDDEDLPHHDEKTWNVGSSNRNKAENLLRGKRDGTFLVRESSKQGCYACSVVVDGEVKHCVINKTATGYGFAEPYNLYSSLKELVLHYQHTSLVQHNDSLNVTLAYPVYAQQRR
Description: Biological Data PI3K HTRF Assay
The binding of compounds to PI3K-alpha/beta/delta/gamma is determined by homogeneous time resolved fluorescence (HTRF) assays as follows;
Briefly, solid compound is dissolved in 100% DMSO at a concentration of 2 mM. Dilutions are prepared in 100% DMSO using a 1 in 4 serial step dilution. The dilutions are transferred to black low volume Greiner assay plates ensuring that the DMSO concentration is constant across the plate at 1% (0.1 ul/well).
PI3K Reaction Buffer (contains 50 mM HEPES pH7.0 (NaOH), 150 mM NaCl, 10 mM MgCl2, 2.3 mM sodium cholate, 10 μM CHAPS made up in milliQ water). Fresh DTT is added at a final concentration of 1 mM on the day of use. Wortmannin at a concentration sufficient to produce 100% inhibition (8.33e-6 M) is added to column 18 of compound plates.
Enzyme solutions: 1× PI3K assay Buffer containing: • 550 pM PI3K-Alpha enzyme (275 pM final assay concentration) • 800 pM PI3K-Beta enzyme (400 pM final assay concentration) • 3 nM PI3K-Delta enzyme (1.5 nM final assay concentration) • 10 nM PI3K-Gamma enzyme (5 nM final assay concentration)
These concentrations are optimal to achieve a signal:background of between 1.5-4.5. The enzyme solution is added to columns 1-24 (3 ul/well) and plates are incubated for 15 minutes at room temperature.
Substrate solution: 1× PI3K assay buffer containing: • PI3K-Alpha: 500 μM ATP, 20 μM PIP2 and 120 nM biotin-PIP3. (Final assay concentrations are 250 μM ATP, 10 μM PIP2 (both at Km) and 40 nM biotin-PIP3) • PI3K-Beta: 800 μM ATP, 20 μM PIP2 and 120 nM biotin-PIP3. (Final assay concentrations are 400 μM ATP, 10 μM PIP2 (both at Km) and 40 nM biotin-PIP3) • PI3K-Delta: […], 20 μM PIP2 and 120 nM biotin-PIP3. (Final assay concentrations are 80 μM ATP, 10 μM PIP2 (both at Km) and 40 nM biotin-PIP3) • PI3K-Gamma: 30 μM ATP, 20 μM PIP2 and 120 nM biotin-PIP3.
This is added to all wells and plates are incubated for 1 hour at room temperature.
Detection solution: PI3K Detection Buffer (contains 50 mM HEPES pH7.0 (HCl), 150 mM NaCl, 2.3 mM sodium cholate, 10 μM CHAPS, 240 mM potassium fluoride) containing 2 mM DTT (2× final concentration), 90 nM GRP-1 PH domain, 300 nM Streptavidin-APC and 24 nM Europium-anti-GST (6× final concentrations)
This is mixed left at room temperature (protected from light).
STOP solution: PI3K STOP Buffer (contains 50 mM HEPES pH7.0 (HCl), 150 mM NaCl, 2.3 mM sodium cholate, 10 μM CHAPS, 150 mM EDTA).
Detection solution is diluted 1:1 with STOP solution and added to all wells (3 ul/well). Plates are covered and incubated on the bench for 45-60 minutes. Plates are read on a PerkinElmer Envision, measuring TR-FRET between the complex formed between the GST-tagged PH domain and biotinylated PIP3 which both recruit fluorophores (Europium-labelled anti-GST & Strep-APC respectively). […], this complex is disrupted by the competitive action of non-biotinylated PIP3 (formed in the assay by the phosphorylation of PIP2 by the kinase & ATP). From this, the ratio of acceptor/donor was calculated (Aex=317 nm, Aem donor=615 nm, em acceptor=665 nm) and used for data analysis.

Row | IC50 [2] [nM] | SMILES | efficacy in a mouse model of amphetamine-induced psychosis [1]
1 | – | Cc1ccccc1-n1c(Cn2cnc3c(N)ncnc32)nc2cccc(C)c2c1=O [IC87114] | remarkable efficacy
2 | ≤ 3.16 | COc1ncc(N2CCOCC2)cc1S(=O)(=O)Nc1ccnc(-c2ccc(CN3CCC(C)C3)cc2F)c1 (centres unmarked) [Example 19, N-(2-(2-fluoro-4-((3-methylpyrrolidin-1-yl)methyl)phenyl)pyridin-4-yl)-2-methoxy-5-morpholinopyridine-3-sulfonamide] | –
